Assay results: patent publication US11286278B2, “DPEP-1 binding agents and methods of use” (Arch Biopartners, Inc., priority 2018, dated 2022)
Ends that are not written are not given here.

Columns and labels:
human DPEP3 = target: T1, human DPEP3 (Homo sapiens, UniProt Q9H4B8); assay: Immunofluorescence binding to Cos-1 cells transfected with human DPEP3; settings: Alexa-488 conjugate
T1 construct: expressed in transfected cells; host or cells: Cos-1
T1 sequence (Q9H4B8 36-463): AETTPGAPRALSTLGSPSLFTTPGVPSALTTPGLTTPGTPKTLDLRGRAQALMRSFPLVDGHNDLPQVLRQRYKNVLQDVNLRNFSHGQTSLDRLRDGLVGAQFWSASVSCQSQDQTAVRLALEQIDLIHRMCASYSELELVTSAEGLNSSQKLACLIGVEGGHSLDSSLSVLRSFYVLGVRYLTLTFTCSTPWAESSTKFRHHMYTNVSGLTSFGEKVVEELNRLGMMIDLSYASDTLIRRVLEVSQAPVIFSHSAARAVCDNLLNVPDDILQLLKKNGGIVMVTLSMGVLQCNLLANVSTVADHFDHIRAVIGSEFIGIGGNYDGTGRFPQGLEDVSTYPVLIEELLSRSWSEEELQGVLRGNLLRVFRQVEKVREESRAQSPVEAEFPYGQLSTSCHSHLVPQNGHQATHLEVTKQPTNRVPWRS
Experimental: Cos-1 cells were transiently transfected with either 3 μg of human DPEP-1, DPEP2, or DPEP3 gene using Lipofectamine 2000 (Invitrogen) reagent in OptiMEM medium. 24 hours after transfection, DPEP-1, DPEP2, or DPEP3 expressing cells were re-seeded on collagen coated (neutralized) wells in 24 well plates and allowed to grow for 24 hours at 37° C. […] Cells were blocked with FBS/NBSA/Tween in PBS for 30 minutes on ice. Cells were then washed with PBS and incubated with LSALT or GFE-1, conjugated with Alexa-488 (green). After incubation, cells were washed with PBS and stained with DAPI for 5 minutes on ice. Cells were then washed with PBS and fixed using 4% paraformaldehyde and immunofluorescence microscopy was performed to assess binding. Representative photomicrographs are shown for each experimental condition (n=3) in FIG. 6A. Proteins from DPEP-1, DPEP2 and DPEP3 transfected cells were isolated after 48 hours using octyl-glucoside/RIPA lysis buffer and western blot analysis was performed to assess DPEP-1, DPEP2 and DPEP3 protein expression using specific antibodies; DPEP-1 antibody (Sigma), DPEP2 (Abcam) and DPEP3 (Santacruz). Blots were stripped and reprobed with an anti-β-actin.

[1] = target: T2, renal rat membrane dipeptidase (DPEP-1) (Rattus norvegicus, UniProt P31430); assay: Binding of Alexa-488 conjugated peptides to Cos-7 cells transfected with renal rat membrane dipeptidase; settings: Alexa-488 conjugate, on ice 30 minutes
T2 construct: expressed in transfected cells; host or cells: Cos-7
T2 sequence (P31430 17-384): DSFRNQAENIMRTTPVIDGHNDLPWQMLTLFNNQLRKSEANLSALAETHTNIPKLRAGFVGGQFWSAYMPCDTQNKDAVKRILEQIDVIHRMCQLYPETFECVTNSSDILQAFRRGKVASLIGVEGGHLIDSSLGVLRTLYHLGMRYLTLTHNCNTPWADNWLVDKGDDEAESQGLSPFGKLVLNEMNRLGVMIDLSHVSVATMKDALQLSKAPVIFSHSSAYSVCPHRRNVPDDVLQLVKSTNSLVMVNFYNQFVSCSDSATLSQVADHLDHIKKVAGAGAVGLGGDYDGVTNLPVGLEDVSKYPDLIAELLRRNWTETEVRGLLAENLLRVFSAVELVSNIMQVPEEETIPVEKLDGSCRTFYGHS
Experimental: Cells were incubated with LSALT or GFE-1 conjugated with Alexa-488 (Green), or control peptide conjugated with Alexa-488 (Green) on ice for 30 minutes. Cells were washed and fixed using 4% paraformaldehyde and immunofluorescence microscopy was performed to assess binding. Shown are representative photomicrographs of each experimental condition (n=2).
48 hours after transfection, cells were incubated with LSALT conjugated to Alexa-488 (green) on ice for 30 minutes. Cells were washed and flow cytometry was performed to assess binding. Shown are single parameter histographs for each experimental condition (n=2).

[2] = Incubation in whole human blood, LC/MS of metabolites; assay type: in vitro ADME; settings: 50 μg/mL, whole human blood (citrate or K2 EDTA), up to 120 min
Experimental: Plasma was separated for each sample and phosphoric acid added to stabilize peptide at each timepoint. Samples were assessed for LSALT and its' metabolites using LC/MS. LSALT metabolites were identified using PEAKS X and database searches against LSALT and the human proteome. […] Transfected cells were positively selected for using geneticin resistance and subcloned to generate stably transfected DPEP1 clones. Stably transfected DPEP1 HEK cells were resuspended and incubated with biotinylated LSALT fragment peptides (50 μM) for 1 hour at 37° C. before PBS washes. Bound biotinylated peptide was detected via secondary streptavidin fluorescent conjugate (30 min. incubation at 37° C.) and washed with PBS. Peptide binding was analyzed via flow cytometer. Percentage of peptide binding was compared relative to negative control. […] LysM^(gfp) mice were subjected to endotoxemia via intravenous injection of lipopolysaccharide (LPS, O111:B4) at a dose of 5 mg/kg. The kidney was imaged using multiphoton microscopy at 4 hours post-injection. Various LSALT fragments was used intravenously to pretreat mice 10 min. before LPS injection. Inflammation was quantified by manual counting of monocyte adhesion in single microscopy fields (LPS vs. Fragment C; n=3-6 fields/group; ***:p=0.004).

In the case of H-LSALTPSPSWLKYKAL [LSALT], the “binding to human DPEP3 transfected Cos-1 cells” value (human DPEP3) is reported as “does not Bind”, the “binding to Cos-7 cells on DPEP-1 expression, flow cytometry” value [1] is reported as “Enhanced the Binding” and the “binding to Cos-7 cells on DPEP-1 expression, immunofluorescence microscopy” value [1] is reported as “Enhanced the Binding”. The “metabolism in whole blood” value [2] was “metabolized in whole blood into smaller fragments”.
